Results from patent US20230355773A1, “[…] DRUG CONJUGATES” (P.I.F. Entrepreneurs Ltd., priority 2020, published 2023).
Read-outs that look alike come from different tables or passages of the source.

Tests used:
[1] = test system: activated macrophages (THP1 monocytes transformed with PMA, infected with Leishmania donovani); settings: for activated macrophage survival: 0.1, 1 and 10 µg/ml, 12-14 hours of incubation, FIG. 1
Method: (§1) A macrophage killing assay was performed in order to determine potential of conjugates described herein for treatment of macrophage-related diseases. THP1 monocytes were transformed into macrophages for using phorbol myristate acetate (PMA). […] The data shown in FIG. 1 represents macrophage survival percent after 12-14 hours of incubation with conjugates. […] In the figure, series 1 represents control macrophages which were not infected. Series 2, 3 and 4 represent the 0.1, 1 and 10 µg/ml dosages. The values shown in these series represented number of cells, as normalized to control, non-infected macrophages.
(§2) Media used for macrophage assay: RPMI with 10% FCS, supplemented with pencillin streptomycin and glutamine. The compounds were prepared in phosphate buffered saline with pH adjusted to 7.6 and were used immediately after preparation.
Infection of macrophage: The macrophages were infected with 5x times with Leishmania donovani - for a density of 1x10^5 monocytes transformed to macrophage, the infection density is 5 x 10^5 L.donovani.
(§3) The experiment was performed according to the following schedule: • Monocyte to macrophage transformation: 0 to 48 hours • Macrophage Infection with Leishmania: 48-84 hours • Treatment with compound: 84 - 96 hours • Plate used for assay: Microscopy compatible glass bottom plate -24 wells.
The macrophages that were alive were counted in five different fields of the wells for different concentration and the average count was used for the assay. Based on the count of the control macrophages, the % was adjusted.

[2] = test system: non-infected macrophages (THP1 monocytes transformed with PMA); settings: 10 µg/ml, live imaging, 8 hours, FIG. 2
Method: as §1, with “FIG.” for “FIG. 1 represents macrophage survival percent after 12-14 hours of incubation with conjugates.”
as §2, §3

[3] = fasted mice
Method: CC57BL/6 mice aged approximately 9 weeks were weighed and acclimated to facility conditions. Animals were assigned to 3 treatment groups based on their body weights, creating homogenous groups of 5 mice in each group. After fasting, blood glucose of levels of mice were tested at time 0, at which time the test drug was administered, then subsequently at 30, 60, 90 and 120 minutes post administration, using blood glucose test strips.

[4] = test system: neuroinflammatory response induced by LPS; settings: I5 100 µg per mouse s.c.
Method: 120 mice (female C57BL/6) mice approximately 6 weeks old were assigned into groups based on body weight, creating homogenous groups, and acclimated to facility conditions over 5 days.
A neuroinflammatory response was induced in all mice by intraperitoneal administration of 5 mg/kg of LPS. […] Group 2: dexamethasone at […]. Group 3: Vehicle. Test items were administered at the following time points: 30 minutes before LPS injection, 2 hours post-LPS injection and 10 hours post LPS injection (where applicable). 10 animals from each group were sacrificed at the following time points: 4, 8, 24 and 48 hours post LPS administration. Brains were collected and preserved in buffered 4% formaldehyde. Bronchoalveolar lavage fluid was extract from lungs of all animals.

[5] = test system: cytokines levels after LPS induction; settings: 100 µg per mouse s.c.
[6] = female, ICR, mouse, in vivo
in vivo = settings: female, ICR, mouse
[7] = 24 hours following LPS induction
[8] = plasma, parameters used for estimating t½
[9] = plasma, single IV, I5 200 mg/kg, dexamethasone sodium phosphate 40 mg/kg

C[C@@H]1C[C@H]2[C@@H]3CCC4=C/C(=N/OCCCO[C@H]5O[C@H](CO)[C@@H](O)[C@H](O)[C@@H]5O)C=C[C@]4(C)[C@@]3(F)[C@@H](O)C[C@]2(C)[C@@]1(O)C(=O)CO [Compound I5, 1-((8S,9R,10S,11S,13S,14S,16R,17R,E)-9-Fluoro-11,17-Dihydroxy-10,13,16-Trimethyl-3-((3-(((2S,3S,4S,5S,6R)-3,4,5–Trihydroxy-6-(Hydroxymethyl)Tetrahydro-2H-Pyran-2-yl)oxy)propoxy)imino)-6,7,8,9,10,11,12,13,14,15,16,17-Dodecahydro-3H-cyclopenta[a]phenanthren-17-yl)-2-Hydroxyethan-1-One]
time to killing of activated macrophages ([1]; 10 µg/ml, live imaging, FIG. 2): ≤ 8 h | activated macrophage survival [1]: particularly effective | effect on macrophages not activated by infection [2]: remained unchanged | blood glucose relative to baseline ([3]; 100 µg per mouse, 30 to 120 minutes post-administration): not increased above baseline | blood glucose relative to baseline ([3]; 2500 µg per mouse (25-fold molar equivalent of 65 µg dexamethasone)): no elevation of blood glucose level | Clinical score - Appearance ([4]; 24 Hr. following LPS induction, vs groups 2 and 3): best clinical score | Clinical score - Eye condition [4, 7]: best clinical score | Clinical score - Response to stimulus [4, 7]: best clinical score | Total clinical score ([4]; compared to groups 2 and 3): best clinical score | blood-brain barrier penetration, evidenced by CNS cytokine levels ([5]; LPS model): able to penetrate the blood-brain barrier | Cytokines levels in Bronchoalveolar lavage fluid ([5]; IL-1 a and MCP1 (4 Hr. post LPS), MCP1 (8 Hr. post LPS)): immunomodulatory effect | Cytokines levels in brains ([5]; IL-2 (4 and 8 Hr. post LPS), IL-10 (8 Hr.), VEGF a (8 and 24 Hr.), vs groups 2 and 3): immunomodulatory effect | Cytokines levels in serum ([5]; IL-17 and RANTES (4 Hr. post LPS), LIF (8 Hr. post LPS)): immunomodulatory effect | relative systemic exposure (200 mg Compound I5 compared to 40 mg Dexamethasone): 4.2% | elimination curve in plasma (mice after IV dosing): two-phase elimination curve | AUC%Extrap [8]: 0.403% | Lambda z [8]: 0.164 h⁻¹ | AUCINF/Dose (plasma, single IV): 93.4 h^∗ng/mL/mg/kg | Exprel, relative systemic exposure [AUCinf/dose (Compound I5)/AUCinf/dose (Dexamethasone)] x 100 (plasma, single IV, I5 200 mg/kg vs dexamethasone 40 mg/kg): 4.2% | CL [9]: 178.33 mL/min/kg | Tlast [9]: 24.0 h | Concentration in brain (CSF) (pooled) [6]: 29.4 ng/mL | pooled CSF levels detected ([6]; iv): 6.86 to 29.4 ng/mL | CSF levels as fold the LLOQ (5.00 ng/mL) ([6]; iv, 200 mg/kg): 1.4-5.9 fold | half-life (in vivo; T½, plasma, table Parameters used for estimating t½ in plasma): 4.23 h | Tmax (in vivo; iv): 5 min | clearance (in vivo; iv): 178 mL/min/kg | half-life (in vivo; iv, T½, plasma, single IV, I5 200 mg/kg, dexamethasone sodium phosphate 40 mg/kg, table PK parameters in plasma): 4.23 h | Vd (in vivo; iv, Vss, plasma, single IV, I5 200 mg/kg, dexamethasone sodium phosphate 40 mg/kg): 12.1 L/kg | Vd (in vivo; iv, Vz, plasma, single IV, I5 200 mg/kg, dexamethasone sodium phosphate 40 mg/kg): 65.3 L/kg | Vd (in vivo; iv, distribution volume, Vss, plasma, IV): 12.1 L/kg | half-life (in vivo; iv, terminal elimination half-life in plasma, mice after IV dosing): ~4.2 h

CC(CC(=O)N/N=C(\CO)[C@@]1(O)[C@H](C)C[C@H]2[C@@H]3CCC4=CC(=O)C=C[C@]4(C)[C@@]3(F)C(O)C[C@@]21C)O[C@H]1OC(CO)[C@@H](O)C(O)C1O (stereo partly shown) [MD4]
activated macrophage survival [1]: particularly effective

C[C@@H]1C[C@H]2[C@@H]3CCC4=CC(=O)C=C[C@]4(C)[C@@]3(F)C(O)C[C@]2(C)[C@@]1(O)C(=O)CO (stereo partly shown) [dexamethasone, reference compound]
increase of blood sugar levels (change from baseline) ([3]; dexamethasone 65 mg (so in the source), 30 to 120 minutes post administration): about 15%
